Data reported in the NIST ThermoML archive (doi:10.1016/j.fluid.2015.10.026).

Settings: Liquid, Brillouin light scattering

CCOC(C)(C)C [2-ethoxy-2-methylpropane]
Settings | speed of sound [m/s]
293.15 K, 10 kPa | 1059.2
293.15 K, 1000 kPa | 1060.3
293.15 K, 2500 kPa | 1070.5
293.15 K, 4000 kPa | 1080.8
293.15 K, 5500 kPa | 1091.1
293.15 K, 7000 kPa | 1101.5
293.15 K, 8500 kPa | 1111.9
293.15 K, 10000 kPa | 1122.4
303.15 K, 10 kPa | 1013
303.15 K, 1000 kPa | 1019.4
303.15 K, 2500 kPa | 1030.3
303.15 K, 4000 kPa | 1041.2
303.15 K, 5500 kPa | 1052
303.15 K, 7000 kPa | 1062.8
303.15 K, 8500 kPa | 1073.5
303.15 K, 10000 kPa | 1084.2
313.15 K, 10 kPa | 967.71
313.15 K, 1000 kPa | 978.21
313.15 K, 2500 kPa | 989.92
313.15 K, 4000 kPa | 1001.5
313.15 K, 5500 kPa | 1012.9
313.15 K, 7000 kPa | 1024.2
313.15 K, 8500 kPa | 1035.3
313.15 K, 10000 kPa | 1046.3
323.15 K, 20 kPa | 923.32
323.15 K, 1000 kPa | 936.6
323.15 K, 2500 kPa | 949.23
323.15 K, 4000 kPa | 961.61
323.15 K, 5500 kPa | 973.77
323.15 K, 7000 kPa | 985.68
323.15 K, 8500 kPa | 997.36
323.15 K, 10000 kPa | 1008.8
333.15 K, 40 kPa | 879.69
333.15 K, 1000 kPa | 894.61
333.15 K, 2500 kPa | 908.27
333.15 K, 4000 kPa | 921.59
333.15 K, 5500 kPa | 934.59
333.15 K, 7000 kPa | 947.25
333.15 K, 8500 kPa | 959.59
333.15 K, 10000 kPa | 971.59
343.15 K, 60 kPa | 836.71
343.15 K, 1000 kPa | 852.23
343.15 K, 2500 kPa | 867.04
343.15 K, 4000 kPa | 881.42
343.15 K, 5500 kPa | 895.38
343.15 K, 7000 kPa | 908.92
343.15 K, 8500 kPa | 922.03
343.15 K, 10000 kPa | 934.71
353.15 K, 90 kPa | 794.25
353.15 K, 1000 kPa | 809.46
353.15 K, 2500 kPa | 825.54
353.15 K, 4000 kPa | 841.11
353.15 K, 5500 kPa | 856.15
353.15 K, 7000 kPa | 870.68
353.15 K, 8500 kPa | 884.68
353.15 K, 10000 kPa | 898.16
363.15 K, 130 kPa | 752.18
363.15 K, 1000 kPa | 766.3
363.15 K, 2500 kPa | 783.78
363.15 K, 4000 kPa | 800.64
363.15 K, 5500 kPa | 816.89
363.15 K, 7000 kPa | 832.52
363.15 K, 8500 kPa | 847.54
363.15 K, 10000 kPa | 861.94
373.15 K, 180 kPa | 710.37
373.15 K, 1000 kPa | 722.76
373.15 K, 2500 kPa | 741.75
373.15 K, 4000 kPa | 760.03
373.15 K, 5500 kPa | 777.6
373.15 K, 7000 kPa | 794.46
373.15 K, 8500 kPa | 810.61
373.15 K, 10000 kPa | 826.04
383.15 K, 250 kPa | 668.66
383.15 K, 1000 kPa | 678.84
383.15 K, 2500 kPa | 699.46
383.15 K, 4000 kPa | 719.28
383.15 K, 5500 kPa | 738.29
383.15 K, 7000 kPa | 756.49
383.15 K, 8500 kPa | 773.88
383.15 K, 10000 kPa | 790.47
393.15 K, 340 kPa | 626.87
393.15 K, 1000 kPa | 634.52
393.15 K, 2500 kPa | 656.9
393.15 K, 4000 kPa | 678.37
393.15 K, 5500 kPa | 698.94
393.15 K, 7000 kPa | 718.61
393.15 K, 8500 kPa | 737.37
393.15 K, 10000 kPa | 755.23
403.15 K, 440 kPa | 584.83
403.15 K, 1000 kPa | 589.82
403.15 K, 2500 kPa | 614.07
403.15 K, 4000 kPa | 637.32
403.15 K, 5500 kPa | 659.57
403.15 K, 7000 kPa | 680.82
403.15 K, 8500 kPa | 701.07
403.15 K, 10000 kPa | 720.33
413.15 K, 570 kPa | 542.3
413.15 K, 1000 kPa | 544.74
413.15 K, 2500 kPa | 570.98
413.15 K, 4000 kPa | 596.12
413.15 K, 5500 kPa | 620.17
413.15 K, 7000 kPa | 643.12
413.15 K, 8500 kPa | 664.98
413.15 K, 10000 kPa | 685.74
423.15 K, 730 kPa | 499.06
423.15 K, 2500 kPa | 527.62
423.15 K, 4000 kPa | 554.78
423.15 K, 5500 kPa | 580.74
423.15 K, 7000 kPa | 605.52
423.15 K, 8500 kPa | 629.1
423.15 K, 10000 kPa | 651.49
